In the test the test system is mutant HTT protein (mHTT). Nature of the test: Homogeneous Time Resolved Fluorescence (HTRF) assay for HTT lowering. It is filed as cell-based. As to conditions: reduction of mHTT in Huntington patient human cells (GENEAe020-A cell line), 48 hours incubation, mean from three replicates. Here is the method: Homogeneous Time Resolved Fluorescence for HTT lowering
The HTRF assay was adapted from Weiss et al. (Analytical Biochemistry Volume 395, Issue 1, 1 Dec. 2009, Pages 8-15 and Analytical Biochemistry Volume 410, 2011, Pages 304-306) to cells from GENEAe020-A cell line (https://hpscreg.eu/cell-line/GENEAe020-A).
Compounds were tested for the effect of mutant HTT levels in Huntington patient human cells (GENEAe020-A cell line) using Homogeneous Time Resolved Fluorescence (HTRF) directed towards mutant HTT protein (mHTT). The GENEAe020-A cell line was derived by Genea Biocells from human blastocysts of HD donors. After assessing viability, cells were plated into 384 well collagen coated plates in growth media. Once cells adhered, media was removed and test compounds dissolved in DMSO were diluted with buffer solution and added to the adherent cells. Controls included experiments with no cells, DMSO with no compound, and Hsp90 inhibitor control. Cells were incubated with compounds and controls for 48 hours. Then, the cells were lysed and transferred to an assay plate containing HTRF labeled monoclonal antibodies developed by Paul Patterson (Ko et al., Brain Research Bulletin, Volume 56, Numbers 3 and 4, 2001, Pages 319-329) which recognize specific areas of the HTT protein. The terbium labeled “donor” antibody (2B7) binds to the N-terminus of the HTT protein and the Alexa488 labeled “acceptor” antibody (MW1) is specific for the polyglutamine region of the protein. Binding of the acceptor labeled antibody is more efficient for the extended polyglutamine repeats of mutant HTT protein which translates into a signal boost which enables the specific measurement of mutant HTT protein level. The HTRF donor and acceptor detection reagents were incubated with the cell lysate and the ratio between the signals of the two fluorophores is indicative of the relative quantities of mHTT.
A general note: In TR-FRET formats the signal depends on donor and acceptor labels being close together.

Two compounds from patent US20240018163A1, “NEW THIAZOLOPYRIMIDINONE DERIVATIVES” (Hoffmann-La Roche Inc., priority 2021, published 2024) can be followed below.

As a reminder, the EC50 is the concentration at which the effect is half-maximal. Read a high EC50 as weaker potency.

In turn, `COc1cc(-c2cc(=O)n3cc([C@]4(F)CCNC[C@@H]4F)sc3n2)nn2cc(C)nc12` [Example 57, 7-(8-methoxy-2-methyl-imidazo[1,2-b]pyridazin-6-yl)-2-[(3S,4S)-3,4-difluoro-4-piperidyl]thiazolo[3,2-a]pyrimidin-5-one] displayed an EC50 of 239 nM.
Then `COc1cc(-c2cc(=O)n3cc([C@]4(F)CCNC[C@H]4F)sc3n2)nn2cc(C)nc12` [Example 56, 7-(8-methoxy-2-methyl-imidazo[1,2-b]pyridazin-6-yl)-2-[(3R,4S)-3,4-difluoro-4-piperidyl]thiazolo[3,2-a]pyrimidin-5-one], with 50 nM.
